Results as given in article PMC8517087, “Analysis of M4 Transmembrane Segments in NMDA Receptor Function: A Negative Allosteric Modulatory Site at the GluN1 M4 is Determining the Efficiency of Neurosteroid Modulation” (Frontiers in Pharmacology, 2021).
Where a name gives a salt, the structure may show the parent alone.

Assays:
Assay in all cases: two-electrode voltage clamp, Xenopus oocytes, -70 mV
Assay type in all cases: cell-based
[1] = molecular target: T1, GluN1^ΔM4+M4^N1/GluN2D (Rattus norvegicus; Mus musculus, UniProt P35439+Q03391); settings: saturating glutamate and glycine, PS pre-applied 45 s
T1 construct: gene Grin1; M4-truncated GluN1 plus separately expressed M4 fragment carrying GluN1 signal peptide, with full-length GluN2D; Xenopus oocytes

[2] = molecular target: T2, GluN1/GluN2A^ΔM4+M4^N2A (Rattus norvegicus; Mus musculus, UniProt P35436+P35439); settings: saturating glutamate and glycine, PS pre-applied 45 s
T2 construct: gene Grin1; full-length GluN1 with M4-truncated GluN2A plus separately expressed GluN2A M4 fragment; Xenopus oocytes
T2 sequence (P35436 23-803, stated change not applied, other chains not shown): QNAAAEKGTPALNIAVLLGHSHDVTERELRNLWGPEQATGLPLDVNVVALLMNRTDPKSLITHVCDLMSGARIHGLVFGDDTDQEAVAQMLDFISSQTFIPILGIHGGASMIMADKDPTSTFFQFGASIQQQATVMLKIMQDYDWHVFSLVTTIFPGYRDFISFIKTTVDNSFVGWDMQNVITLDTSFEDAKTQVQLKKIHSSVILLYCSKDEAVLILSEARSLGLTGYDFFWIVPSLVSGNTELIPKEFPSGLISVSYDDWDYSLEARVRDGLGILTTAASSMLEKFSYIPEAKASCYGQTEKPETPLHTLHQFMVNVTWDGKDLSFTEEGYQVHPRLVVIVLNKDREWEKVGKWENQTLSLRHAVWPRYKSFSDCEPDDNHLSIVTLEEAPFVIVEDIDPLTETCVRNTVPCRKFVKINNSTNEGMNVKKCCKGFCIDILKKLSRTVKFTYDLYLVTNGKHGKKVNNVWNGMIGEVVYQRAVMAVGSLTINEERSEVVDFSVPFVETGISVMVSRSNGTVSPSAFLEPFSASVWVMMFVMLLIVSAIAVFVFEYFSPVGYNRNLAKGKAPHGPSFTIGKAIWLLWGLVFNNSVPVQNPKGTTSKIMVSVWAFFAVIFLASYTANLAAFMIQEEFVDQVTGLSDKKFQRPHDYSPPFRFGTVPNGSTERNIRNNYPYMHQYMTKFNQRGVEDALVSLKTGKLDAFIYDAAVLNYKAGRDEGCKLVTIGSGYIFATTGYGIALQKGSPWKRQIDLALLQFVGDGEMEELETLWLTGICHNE
T2 sequence (P35436 804-1464, stated change not applied, other chains not shown): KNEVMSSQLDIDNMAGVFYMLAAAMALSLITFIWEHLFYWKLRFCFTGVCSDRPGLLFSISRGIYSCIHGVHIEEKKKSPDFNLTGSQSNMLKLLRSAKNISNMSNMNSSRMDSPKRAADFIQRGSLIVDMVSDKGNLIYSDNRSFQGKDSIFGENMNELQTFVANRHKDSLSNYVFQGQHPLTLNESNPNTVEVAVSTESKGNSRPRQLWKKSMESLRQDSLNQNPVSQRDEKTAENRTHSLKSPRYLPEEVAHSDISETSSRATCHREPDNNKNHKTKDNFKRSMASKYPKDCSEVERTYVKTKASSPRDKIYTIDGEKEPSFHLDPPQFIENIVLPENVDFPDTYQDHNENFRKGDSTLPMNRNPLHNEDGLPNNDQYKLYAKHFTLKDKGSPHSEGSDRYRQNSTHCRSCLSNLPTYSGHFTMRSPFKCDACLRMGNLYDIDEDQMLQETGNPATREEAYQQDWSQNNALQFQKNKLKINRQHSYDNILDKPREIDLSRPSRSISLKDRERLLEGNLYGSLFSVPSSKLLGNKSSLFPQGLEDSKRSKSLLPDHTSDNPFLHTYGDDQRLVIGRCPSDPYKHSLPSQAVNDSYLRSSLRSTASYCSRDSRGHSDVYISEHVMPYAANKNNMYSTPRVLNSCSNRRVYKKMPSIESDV

[3] = molecular target: T3, GluN1/GluN2A (Rattus norvegicus; Mus musculus, UniProt P35436+P35439)
T3 construct: gene Grin1; full-length wild-type subunits in pNKS2, cRNA in Xenopus laevis oocytes; heterotetramer (rat GluN1 with mouse GluN2A)
T3 sequence (P35436 23-1464, other chains not shown): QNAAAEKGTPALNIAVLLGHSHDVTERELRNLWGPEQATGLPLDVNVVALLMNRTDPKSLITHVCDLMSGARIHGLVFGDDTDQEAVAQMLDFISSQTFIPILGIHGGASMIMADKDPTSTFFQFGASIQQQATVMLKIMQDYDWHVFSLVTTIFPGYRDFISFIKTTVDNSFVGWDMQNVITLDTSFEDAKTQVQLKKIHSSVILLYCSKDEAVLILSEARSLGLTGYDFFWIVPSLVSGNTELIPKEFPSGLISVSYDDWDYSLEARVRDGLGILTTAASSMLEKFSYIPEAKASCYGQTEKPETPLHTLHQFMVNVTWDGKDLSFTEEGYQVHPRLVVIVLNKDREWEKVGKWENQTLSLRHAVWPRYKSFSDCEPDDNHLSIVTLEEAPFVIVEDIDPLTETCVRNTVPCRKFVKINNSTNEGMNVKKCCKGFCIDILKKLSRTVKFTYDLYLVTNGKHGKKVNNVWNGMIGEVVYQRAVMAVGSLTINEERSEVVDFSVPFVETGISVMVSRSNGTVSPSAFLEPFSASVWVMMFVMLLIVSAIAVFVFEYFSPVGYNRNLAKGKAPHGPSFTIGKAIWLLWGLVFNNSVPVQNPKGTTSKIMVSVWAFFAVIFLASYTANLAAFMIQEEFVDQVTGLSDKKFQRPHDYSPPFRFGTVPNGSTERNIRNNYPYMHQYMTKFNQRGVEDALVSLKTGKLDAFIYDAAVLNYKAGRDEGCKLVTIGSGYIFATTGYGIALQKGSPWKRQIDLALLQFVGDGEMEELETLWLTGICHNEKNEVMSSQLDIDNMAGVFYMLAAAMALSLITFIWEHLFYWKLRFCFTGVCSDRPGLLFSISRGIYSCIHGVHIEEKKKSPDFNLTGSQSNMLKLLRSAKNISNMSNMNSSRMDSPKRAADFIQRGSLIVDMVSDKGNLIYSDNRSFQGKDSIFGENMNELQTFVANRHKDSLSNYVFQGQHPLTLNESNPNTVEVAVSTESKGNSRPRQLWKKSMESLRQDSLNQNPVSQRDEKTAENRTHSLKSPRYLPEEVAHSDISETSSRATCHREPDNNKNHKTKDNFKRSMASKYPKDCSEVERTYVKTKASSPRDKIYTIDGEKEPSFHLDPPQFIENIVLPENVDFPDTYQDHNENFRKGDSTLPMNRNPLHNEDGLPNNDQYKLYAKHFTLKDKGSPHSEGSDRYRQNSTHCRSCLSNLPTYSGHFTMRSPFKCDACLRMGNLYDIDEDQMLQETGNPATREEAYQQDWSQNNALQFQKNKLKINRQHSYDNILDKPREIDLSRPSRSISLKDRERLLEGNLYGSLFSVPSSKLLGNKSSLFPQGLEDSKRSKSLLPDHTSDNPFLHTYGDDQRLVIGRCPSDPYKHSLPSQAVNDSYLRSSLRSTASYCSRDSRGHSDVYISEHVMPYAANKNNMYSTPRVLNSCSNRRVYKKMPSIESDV

[4] = molecular target: T4, GluN1^ΔM4+M4^N1/GluN2A (Rattus norvegicus; Mus musculus, UniProt P35436+P35439)
T4 construct: gene Grin1; M4-truncated GluN1 plus separately expressed M4 fragment carrying GluN1 signal peptide, with full-length GluN2A; Xenopus oocytes

**Q.** `CC(=O)[C@H]1CC[C@H]2[C@@H]3CC=C4C[C@@H](OS(=O)(=O)O)CC[C@]4(C)[C@H]3CC[C@]12C` [pregnenolone sulfate, 20-oxo-5-pregnen-3β-yl sulfate] was tested. Which “Imax potentiation (fold)” value [1] did it give?
**A.** The value was 1.45 ± 0.19 fold.

**Q.** And the “Imax potentiation at 100 μM (fold)” value [2]?
**A.** The value was ~ 1.1 fold.

**Q.** And the EC50 [3]?
**A.** Its EC50 is 12.4 ± 1.3 µM.

**Q.** What about the EC50 [4] of the same compound?
**A.** The EC50 was 15 ± 1.1 µM.
